# Measurements from US7829728B2, “Diarymethyl and related compounds” (Theravance, Inc., priority 2003, dated 2010).
# pEC50: −log10 of the molar value.
# Legend:
# [1] = target: T1, human β2 adrenergic receptor (Homo sapiens, UniProt P07550); assay: Whole-cell cAMP Flashplate assay with a lung epithelial cell line (BEAS-2B) endogenously expressing human β2 adrenergic receptor (Assay Test Procedure E); format: cell-based; conditions: BEAS-2B human lung epithelial cells, endogenous receptor
# Description: For the determination of agonist potencies and efficacies (intrinsic activities) in a cell line expressing endogenous levels of the β2 adrenergic receptor, a human lung epithelial cell line (BEAS-2B) was used (ATCC CRL-9609, American Type Culture Collection, Manassas, Va.) (January B, et al., British Journal of Pharmacology, 1998, 123, 4, 701-11). Cells were grown to 75-90% confluency in complete, serum-free medium (LHC-9 MEDIUM containing Epinephrine and Retinoic Acid, cat #181-500, Biosource International, Camarillo, Calif.). […] On the day of the assay, cells were rinsed with PBS, lifted by scraping with 5 mM EDTA in PBS, and counted. […] Plates were sealed, incubated over night at 4° C. and counted the next morning in a Topcount scintillation counter (Packard BioScience Co., Meriden, Conn.). The amount of cAMP produced per mL of reaction was calculated based on the counts observed for samples and cAMP standards, as described in the manufacturer's user manual. Data were analyzed by nonlinear regression analysis with the GraphPad Prism Software package (GraphPad Software, Inc., San Diego, Calif.) using the 4-parameter model for sigmoidal dose-response. […]
# [2] = target: T1, human β2 adrenergic receptor; assay: Radioligand binding assay for human β2 adrenergic receptor (Assay Test Procedure A); parameters: expressed in transfected cells; host or cells: CHO cells, membranes; conditions: receptor subtype selectivity, human β1 versus β2
# Description: Chinese hamster ovarian (CHO) cell lines stably expressing cloned human β1, β2 or β3 adrenergic receptors, respectively, were grown to near con fluency in Hams F-12 media with 10% FBS in the presence of 500 μg/mL Geneticin. The cell monolayer was lifted with 2 mM EDTA in PBS. Cells were pelleted by centrifugation at 1,000 rpm, and cell pellets were either stored frozen at −80° C. or membranes were prepared immediately for use. For preparation of β1 and β2 receptor expressing membranes, cell pellets were re-suspended in lysis buffer (10 mM HEPES/HCl, 10 mM EDTA, pH 7.4 at 4° C.) and homogenized using a tight-fitting Dounce glass homogenizer (30 strokes) on ice. […] The protein concentration of the membrane suspension was determined by the methods described in Lowry et al., 1951, Journal of Biological Chemistry, 193, 265; and Bradford, Analytical Biochemistry, 1976, 72, 248-54. […]
# Binding assays were performed in 96-well microtiter plates in a total assay volume of 100 μL with 10-15 μg of membrane protein containing the human β1, β2 or β3 adrenergic receptors in assay buffer (75 mM Tris/HCl pH 7.4 at 25° C., 12.5 mM MgCl2, 1 mM EDTA, 0.2% BSA). […] Non-specific binding was determined in the presence of 10 μM propranolol. […] Filter plates were washed three times with filtration buffer (75 mM Tris/HCl pH 7.4 at 4° C., 12.5 mM MgCl2, 1 mM EDTA) to remove unbound radioactivity. […]
# T1 sequence (P07550 whole entry): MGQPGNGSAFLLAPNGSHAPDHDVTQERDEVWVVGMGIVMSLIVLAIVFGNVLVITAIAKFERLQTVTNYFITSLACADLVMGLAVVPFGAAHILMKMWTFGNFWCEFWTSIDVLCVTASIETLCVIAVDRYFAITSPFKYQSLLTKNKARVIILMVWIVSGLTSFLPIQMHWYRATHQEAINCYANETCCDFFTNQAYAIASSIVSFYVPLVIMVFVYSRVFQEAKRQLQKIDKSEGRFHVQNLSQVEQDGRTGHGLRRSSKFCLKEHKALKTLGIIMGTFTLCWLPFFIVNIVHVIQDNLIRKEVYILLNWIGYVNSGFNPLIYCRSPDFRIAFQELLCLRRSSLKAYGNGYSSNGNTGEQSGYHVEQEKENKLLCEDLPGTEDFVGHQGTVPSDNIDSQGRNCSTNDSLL
smiles,measurement,setting,value
"NC(=O)C(c1ccccc1)(c1ccccc1)[C@@H]1CCN(CCCCCCCCCNCC(O)c2ccc(O)c3[nH]c(=O)ccc23)C1 (mixture of isomers) [Example 1, 2-((S)-1-{9-[2-Hydroxy-2-(8-hydroxy-2-oxo-1,2-dihydroquinolin-5-yl)ethylamino]-nonyl}pyrrolidin-3-yl)-2,2-diphenylacetamide]",pEC50,[1],> 8.00
same,ratio of Ki(β1)/Ki(β2),[2],greater than 8
